Experimental data published in patent publication US6375943B1, “Attractant for the mediterranean fruit fly, the method of preparation and method of use” (The United States of America as represented by the …, priority 2000, dated 2002).

Legend:
[1] = system: Mediterranean fruit fly, Ceratitis capitata (Wiedemann); assay: Dose-response field test, Jackson traps, released sterile flies; assay type: in vivo; settings: for Mean male fly capture ± s.e.: 48 hours, released sterile flies; for Male capture compared with other treatments: 1 mg, 0.1 mg and 0.01 mg dosages
Procedure: Field attraction of Mediterranean fruit fly, Ceratitis capitata (Wiedemann), to stereoselectively synthesized enantiomers of the ceralure B1 isomer: The attractancy of the two newly synthesized ceralure B1 enantiomers was evaluated against laboratory and wild populations of medfly and the response to these compounds was compared to commercially available trimedlure and ceralure. Field tests using released sterile flies on the island of Hawaii or field tests against wild populations of medfly in commercial coffee plantations on the island of Kauai were carried out to compare the attractancy, dose response and initial persistence of the new molecules and a racemic (50:50) mixture of the two.
(§1) Insects: Sterilized Mediterranean fruit fly pupae were obtained from the USDA-ARS-USPBARC rearing facility in Honolulu, Hi. The flies were reared on an artificial diet (Tanaka, N., et al., J. Econ. Entomol., 62: 967-968 (1969)) under standard mass-rearing conditions and sterilized as pupae at a dose of 150 GY and two days before emergence. Flies were shipped by air to Hilo where 150 ml of pupae (both sexes) was placed in 15-gallon Rubbermaid action packers modified by screened panels on the bottoms and sides of the units. The emerged flies were given water, sugar and hydrolyzed yeast protein. Flies were 2-9 days old when tested. Wild populations of medflies were present in coffee orchards on the island of Kauai.
(§2) Bioassays: All tests were conducted using tent-shaped Jackson traps with open ends, a removable sticky insert and a ½ inch cotton wick containing the test chemical (Harris, E. J., et al., J. Econ. Entomol., 64: 62-65 (1971)). All tests were conducted using a randomized complete block design having five traps of each treatment in the block. The tests were replicated at least 5 times.
Dose-response tests: 10 mg, 1 mg, 0.1 mg and 0.01 mg doses of each compound (in 100 μl acetone) were tested on ½ inch cotton wicks in Jackson traps. Acetone was used in the control. The treatments were ceralure B1 (1S,2S,5S), ceralure B1 (Racemic), ceralure B1 (1R,2R,5R), trimedlure, ceralure and a blank control. Traps were placed in a macadamia nut orchard on the island of Hawaii near the town of Hilo. Traps were separated by every other tree in every row (approximately 15 meters between traps). Flies (approximately 6,000) were then released by slowly walking between rows while allowing the flies to escape from the opened action packer. Traps were left out for 48 hours after which the traps were collected and brought back to the lab for analysis. Both males and females were counted on the sticky inserts.
(§3) Data analysis: Both male and female medfly were counted on the sticky inserts. […] Data was subjected to analysis of variance (Proc GLM) and the Turkey's test for separation of means values. Significant differences in response were determined at the P=0.05 level. Data were not transformed prior to analysis. Statistical analysis was performed on SAS ver 6.12 (SAS Institute, Cary, N.C.) using a PC. Values presented on the tables are mean values SEM.

[2] = system: Mediterranean fruit fly, Ceratitis capitata (Wiedemann); assay: Longevity field test over three weeks, Jackson traps, released sterile flies; assay type: in vivo; settings: for Male capture compared with other treatments: 10 mg dose
Procedure: as §1, §2
Longevity tests: Preliminary tests to determine the effectiveness of the different chemical compounds over time were also carried out using sterile flies released in a macadamia nut orchard. In these tests all compounds were applied to the cotton wick at a 10 mg dose. 100 μl of each compound was placed on a ½ inch wick inside a Jackson trap. Traps were serviced weekly for three weeks. Inserts were changed each week and new flies were released but the same compounds were left in the field to age.
as §3

Mediterranean fruit fly = settings: field studies from the literature; cited from earlier work
[3] = known in the literature; cited from earlier work
[4] = system: wild Mediterranean fruit flies; assay: Wild fly response to ceralure B1 enantiomers, first experiment, Kauai coffee; settings: for Response of wild flies, Mean ± s.e.: 10 mg, traps serviced every two days; for Male capture compared with other treatments: 10 mg dosage
[5] = system: wild Mediterranean fruit flies; assay: Wild fly response, second experiment against standard 2 g trimedlure plug; settings: for Male capture compared with other treatments: after 48 hours, 10 mg versus 2 g trimedlure plug
[6] = dose .01 mg on cotton wick, N = 25
[7] = Week 1, 10 mg dose, released sterile flies
[8] = Week 2, 10 mg dose, same lure aged in field
[9] = Week 3, 10 mg dose, same lure aged in field

| Compound | Mean male fly capture ± s.e. ([1]; dose 1 mg on cotton wick) | Mean male fly capture ± s.e. ([1]; dose 10 mg on cotton wick) | Mean male fly capture ± s.e. [1, 6] | Mean male fly capture ± s.e. ([1]; dose .1 mg on cotton wick) | Male fly capture, mean ± SEM [2, 7] | Male fly capture, mean ± SEM [2, 8] | Male fly capture, mean ± SEM [2, 9] | Relative attractiveness toward the Mediterranean fruit fly (Mediterranean fruit fly) | Response of wild flies, Mean ± s.e. [4] | Male capture compared with other treatments ([1]; 10 mg) | Male capture compared with other treatments ([2]; after one week) | Male capture compared with other treatments [4] | other results |
| --- | --- | --- | --- | --- | --- | --- | --- | --- | --- | --- | --- | --- | --- |
| ethyl 4 (and 5)-iodo-2-methylcyclohexane-1-carboxylate [Com. Ceralure, reference compound] | 65.07 ± 9.5 bc | 170.47 ± 33.1 c | 23.4 ± 6.3 bc | 11.27 ± 4.1 c | 135 ± 16.8 b | 3.1 ± 2.2 b | .47 ± .27 a | more persistent and potent attractant than TML | 31.8 ± 4.4 c |  |  |  | Volatility compared with trimedlure [3]: less volatile than trimedlure |
| CCOC(=O)[C@H]1C[C@@H](I)CC[C@@H]1C [B1 1S,2S,5S, Ethyl(1S, 2S, 5S)-5-iodo-2-methylcyclohexane-1-carboxylate] | 173 ± 42.2 b | 151.80 ± 25.3 c | 38.3 ± 6.5 b | 57.20 ± 8.3 c | 135.7 ± 33.4 b | 5.5 ± 4.5 b | 0 ± 0 a |  | 40.5 ± 8.3 c |  |  |  |  |
| CC1CC(Cl)CCC1C(=O)OC(C)(C)C (stereo not drawn) [TML-C, 1,1-dimethylethyl-cis-4-chloro-trans-2-methylcyclohexane-1-carboxylate] |  |  |  |  |  |  |  | most active |  |  |  |  |  |
| C[C@H]1C[C@H](Cl)CC[C@@H]1C(=O)OC(C)(C)C (relative stereo) [(1S, 2S, 4R), 1,1-dimethylethyl-cis-4-chloro-trans-2-methylcyclohexane-1-carboxylate] |  |  |  |  |  |  |  | most attractive |  |  |  |  |  |
| CCOC(=O)[C@@H]1C[C@H](I)CC[C@H]1C [B1 1R,2R,5R, Ethyl (1R,2R,5R)-5-iodo-2-methylcyclohexane-1-carboxylate] | 473.07 ± 56.6 a | 487.27 ± 33 a | 117 ± 14.1 a | 303.07 ± 34.5 a | 338.9 ± 40.1 a | 69.3 ± 24.9 ab | .3 ± .3 a |  | 104.2 ± 13.7 a | captured significantly more male medflies than B1 (1S,2S,5S), commercial trimedlure, commercial ceralure and (acetone) control | captured significantly more males than B1 (1S,2S,5S), commercial trimedlure, commercial ceralure and control | captured significantly more males than the B1 racemic mixture | Dose compared to trimedlure to achieve the same trap capture ([1]; 0.01 mg versus trimedlure 10 mg, mean values from Table 1): 1000 times less; Male capture compared with B1 racemic mixture ([1]; 10 mg, 1 mg and 0.1 mg doses): captured significantly more males than the B1 racemic mixture; Mean male fly capture ± s.e. ([1]; dose .01 mg on cotton wick, N = 25, listed as 1R,2R,5R enantiomer): 117; Activity relative to trimedlure at similar doses ([1]; male capture compared to trimedlure, similar doses): 7-10 times; Male capture compared with other treatments [5]: captured the most male medflies but not significantly more than the B1 racemic mixture and commercial trimedlure; Male capture compared with other treatments ([5]; listed as B1 (1R,2R,5R) enantiomer): caught more wild flies after two days than the TML plug; Flies captured as share of the TML plug baited trap ([5]; after an additional 5 days, 10 mg versus 2 g TML plug): approximately 33% |
| CCOC(=O)[C@H]1C[C@@H](I)CC[C@@H]1C (racemic) [B1 Racemic, Ethyl(1SR,2SR,5SR)-5-iodo-2-methylcyclohexane-1-carboxylate] | 376.8 ± 36.7 a | 365.53 ± 33.7 b | 111 ± 12.2 a | 179.67 ± 33.5 b | 274.5 ± 21.8 a | 79.6 ± 33.3 a | 4.7 ± 3.7 a | most active | 70.8 ± 10 b | captured significantly more male medflies than B1 (1S,2S,5S), commercial trimedlure, commercial ceralure and (acetone) control | captured significantly more males than B1 (1S,2S,5S), commercial trimedlure, commercial ceralure and control | significantly higher captures than the B1 (1S,2S,5S) and commercial ceralure | Mean male fly capture ± s.e. ([1]; dose .01 mg on cotton wick, N = 25, listed as B1 racemic): 111; Male capture compared with other treatments ([2]; after two weeks): captured significantly more males than any other compound |
